From patent US9802899B2, “Heterocyclic compounds as pesticides” (BAYER CROPSCIENCE AG, priority 2012, dated 2017)

Legend:
[1] = test system: Ctenocephalides felis; test: Ctenocephalides felis oral test (CTECFE); type: in vivo; details: application rate 100 ppm in citrated cattle blood; adult fleas; after 2 days
Procedure: Ctenocephalides felis—Oral Test (CTECFE)
Solvent: 1 part by weight of dimethyl sulphoxide
To produce a suitable preparation of active compound, 10 mg of active compound are mixed with 0.5 ml of dimethyl sulphoxide. A portion of the concentrate is diluted with citrated cattle blood, and the desired concentration is prepared.
About 20 unfed adult fleas (Ctenocephalides felis) are placed into a chamber which is closed at the top and bottom with gauze. A metal cylinder whose bottom end is closed with a parafilm is placed onto the chamber. The cylinder contains the blood/active compound preparation, which can be imbibed by the fleas through the Parafilm membrane.
After 2 days, the kill in % is determined 100% means that all fleas have been killed; 0% means that none of the fleas have been killed.

[2] = Determination of the log P values by HPLC (formic acid method); type: physicochemical; details: reversed-phase column (C 18), acidic range (pH 3.4), 55° C.
Procedure: 1) Description of Method for Determination of the Log P Values (Formic Acid Method)
Eluents for determination in the acidic range (pH 3.4):
Eluent A: acetonitrile+1 ml of formic acid/liter. Eluent B: water+0.9 ml of formic acid/liter.
The lambda max values were determined in the maxima of the chromatographic signals using the UV spectra from 200 nm to 400 nm.

[3] = test system: Boophilus microplus; test: Boophilus microplus test (DIP); type: in vivo; details: application rate 100 ppm, after 7 days by laying of fertile eggs, 100% = no fertile eggs
Procedure: Boophilus microplus Test (DIP)
Test animals: adult engorged Boophilus microplus females of the SP-resistant Parkhurst strain
(§1) Solvent: dimethyl sulphoxide
10 mg of active compound are dissolved in 0.5 ml of dimethyl sulphoxide. For the purpose of preparing a suitable formulation, the active compound solution is diluted with water to the concentration desired in each case.
This active compound preparation is pipetted into tubes. 8-10 ticks are transferred into a further tube with holes. The tube is immersed into the active compound formulation, and all ticks are completely wetted. After the liquid has run out, the ticks are transferred onto filter discs in plastic dishes and stored in a climate-controlled room.
(§2) The activity is assessed after 7 days by laying of fertile eggs. Eggs whose fertility is not visible from the outside are stored in a climate-controlled cabinet until the larvae hatch. An efficacy of 100% means that none of the ticks has laid any fertile eggs.

[4] = test system: Musca domestica; test: Musca domestica test (MUSCDO); type: in vivo; details: application rate 20 ppm; adult flies; after 2 days
Procedure: Musca domestica Test (MUSCDO)
as §1
To produce a suitable preparation of active compound, 10 mg of active compound are mixed with 0.5 ml of dimethyl sulphoxide, and the concentrate is diluted with water to the desired concentration.
Vessels containing a sponge treated with the active compound formulation of the desired concentration are populated with adult Musca domestica.
After 2 days, the kill in % is determined. 100% means that all of the flies have been killed; 0% means that none of the flies have been killed.

[5] = test system: Boophilus microplus; test: Boophilus microplus test (BOOPMI injection); type: in vivo; details: application rate 20 μg/animal; injection into the abdomen; after 7 days by laying of fertile eggs
Procedure: Boophilus microplus Test (BOOPMI Injection)
as §1
To produce a suitable preparation of active compound, 10 mg of active compound are mixed with 0.5 ml of solvent, and the concentrate is diluted with solvent to the desired concentration.
The active compound solution is injected into the abdomen (Boophilus microplus), and the animals are transferred into dishes and stored in a climate-controlled room.
as §2, with “the larvae hatch after about 42 days. An efficacy” for “the larvae hatch. An efficacy”, “any fertile eggs; 0% means that all eggs are fertile.” for “any fertile eggs.”

[6] = Determination of the log P values by HPLC (formic acid method); type: physicochemical; details: printed as (neutral)
[7] = test system: Phaedon cochleariae; test: Phaedon cochleariae spray test (PHAECO); type: in vivo; details: foliar, 168 h, application rate 500 g/ha, larvae on Chinese cabbage leaf discs, after 7 days, read-out: efficacy
[8] = test system: Meloidogyne incognita; test: Meloidogyne incognita test (MELGIN); type: in vivo; details: Meloidogyne incognita, 336 h; application rate 20 ppm; lettuce in sand; after 14 days; read-out: nematicidal effect (formation of galls)
Procedure: Meloidogyne incognita Test (MELGIN)
Solvent: 125.0 parts by weight of acetone
To prepare a suitable active compound preparation, 1 part by weight of active compound is mixed with the stated amount of solvent and the concentrate is diluted with water to the desired concentration.
Vessels are filled with sand, active compound solution, an egg/larvae suspension of the root-knot nematode (Meloidogyne incognita) and lettuce seeds. The lettuce seeds germinate and the plants develop. On the roots, galls are formed.
After 14 days, the nematicidal effect in % is determined by the formation of galls. 100% means that no galls have been found; 0% means that the number of galls on the treated plants corresponds to the untreated control.

[9] = test system: Cooperia curticei; test: Cooperia curticei test (COOPCU); type: in vivo; details: Cooperia curticei, 120 h; application rate 100 ppm; nematode larvae; after 5 days; read-out: efficacy (kill)

Structure (SMILES)	efficacy (kill) [1]	log P [2]	efficacy [3]	efficacy (kill) [4]	efficacy [5]	log P (neutral) [6]	chromatographic logP ([2]; reversed-phase HPLC column (C 18))	pest or weed control at 500 g/ha [7]	pest or weed control at 20 ppm [8]	pest or weed control at 100 ppm [9]
O=C(Nc1ccn(-c2c(F)cccc2F)n1)c1nccnc1C(F)(F)F [Compound I-1-99]	80%	2.45	100%	90%						
O=C(Nc1ccn(-c2ccccc2Br)n1)c1ncccc1Cl [Compound I-1-55]		2.76			80%					
O=C(Nc1ccn(-c2ccccc2Br)n1)c1c(F)cccc1C(F)(F)F [Compound I-1-335]						3.02				
O=C(Nc1ccn(-c2c(F)cccc2F)n1)c1ncccc1C(F)(F)F [Compound I-1-91, N-[1-(2,6-Difluorophenyl)-1H-pyrazol-3-yl]-3-(trifluoromethyl)pyridine-2-carboxamide]	80%		90%	85%			2.22	100%	100%	90%
